Results from patent publication US20050255582A1, “Surface modifying composition” (Arch Development Corporation:, priority 2000, published 2005).

Assays:
Format in all cases: binding
Fibrinogen = experiment: SPR adsorption of protein on monolayers: fibrinogen; details: for amount of protein that remains adsorbed to the SAM (Fibrinogen): protein 0.5 mg/ml in PBS pH 7.6, SAM on gold
Protocol: (§1) Two experimental procedures were used to evaluate the monolayers as inert surfaces. Surface plasmon resonance (SPR) spectroscopy measures the adsorption of protein to the monolayer. All SPR experiments were performed on a BIAcore 1000 instrument. Substrates were glued into plastic BIACore cassettes with a two-part epoxy (DEVCON). Phosphate-buffered saline (PBS; 10 mM phosphate, 150 mM sodium chloride, pH 7.6) was degassed under vacuum and all protein solutions were filtered through 0.45-μm filters before use. SPR is well suited for characterization of protein adsorption because it measures adsorption in situ and can detect weak, readily reversible protein adsorption. For all monolayers, a panel of five proteins that spanned a range in molecular weight and pI were investigated.
Protein adsorption and cell attachment on four different monolayers was compared. Gold films were prepared by evaporation of titanium (1.5 nm) and then gold (40 nm) onto glass cover slips (0.20 mm, No. 2, Corning). The SAMs were prepared by immersing gold films of approximately 1 cm^2 in ethanolic solutions of alkanethiol (2 mM) for 9 hours. The SAMs were rinsed with ethanol and dried with nitrogen before use. As a control monolayer that is not inert, a SAM of hexadecanethiolate that presents hydrophobic methyl groups at the surface were used. Monolayers terminated in the tri(ethylene glycol) group were used as the current standard for inert surfaces. Each of the two additional monolayers presents the mannitol group and differs only in the length of alkyl chain to which the mannitol group is appended. [drawing 9]
SPR was used to measure the adsorption of five proteins—fibrinogen, pepsin, lysozyme, insulin, and trypsin—to the four monolayers. SPR measures changes in the refractive index of a solution near the interface with a gold film by measuring changes in the angle (ΔΘm) at which p-polarized light reflected from the glass/gold interface has a minimum in intensity. SAMs were mounted in a flow cell and experiments were performed by first flowing a phosphate buffered saline (PBS) through the cell for 5 minutes, then a solution of protein in the same buffer (0.5 mg/ml) for 5 minutes, and then PBS for 5 minutes. The rise in ΔΘm upon introduction of the protein solution has two contributions. […] The second contribution is due to the adsorption of protein to the SAM. The amount of protein that adsorbs irreversibly to the SAM is determined by comparing the shift in Θm before and after the SAM is exposed to protein. An increase in Θm of 0.1° corresponds to an increase in density of adsorbed protein of 1 ng/mm^2.

Pepsin = Pepsin (Homo sapiens, UniProt P0DJD8); experiment: SPR adsorption of protein on monolayers: pepsin; details: protein 0.5 mg/ml in PBS pH 7.6, SAM on gold
Protocol: as §1
(§2) Protein adsorption and cell attachment on four different monolayers was compared. Gold films were prepared by evaporation of titanium (1.5 nm) and then gold (40 nm) onto glass cover slips (0.20 mm, No. 2, Corning). […]
(§3) SPR was used to measure the adsorption of five proteins—fibrinogen, pepsin, lysozyme, insulin, and trypsin—to the four monolayers. […] The amount of protein that adsorbs irreversibly to the SAM is determined by comparing the shift in Θm before and after the SAM is exposed to protein. […]

Lysozyme = biological target: T1, Lysozyme (Homo sapiens, UniProt P61626); experiment: SPR adsorption of protein on monolayers: lysozyme; details: protein 0.5 mg/ml in PBS pH 7.6, SAM on gold
T1 sequence (P61626 19-148): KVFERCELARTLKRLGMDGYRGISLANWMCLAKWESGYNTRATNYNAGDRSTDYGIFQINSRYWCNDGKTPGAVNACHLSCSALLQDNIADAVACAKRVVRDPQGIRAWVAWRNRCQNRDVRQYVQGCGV
Protocol: as §1, §2, §3

Insulin = experiment: SPR adsorption of protein on monolayers: insulin; details: protein 0.5 mg/ml in PBS pH 7.6, SAM on gold
Protocol: as §1, §2, §3

Trypsin = experiment: SPR adsorption of protein on monolayers: trypsin; details: protein 0.5 mg/ml in PBS pH 7.6, SAM on gold
Protocol: as §1, §2, §3

Pepsin, sequence (P0DJD8 63-388): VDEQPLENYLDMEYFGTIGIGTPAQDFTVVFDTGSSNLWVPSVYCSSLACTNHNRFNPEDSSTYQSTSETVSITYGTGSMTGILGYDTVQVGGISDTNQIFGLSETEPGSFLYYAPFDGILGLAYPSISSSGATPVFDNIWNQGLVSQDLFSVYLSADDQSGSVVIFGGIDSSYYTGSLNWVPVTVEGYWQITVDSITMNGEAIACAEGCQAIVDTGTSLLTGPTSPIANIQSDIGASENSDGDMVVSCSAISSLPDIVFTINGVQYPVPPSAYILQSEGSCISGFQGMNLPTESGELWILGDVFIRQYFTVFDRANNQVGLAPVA

CCCCCCCCCCCCCCCCS [HDT, hexadecanethiolate]
adsorption of fibrinogen to the SAM (in words) (Fibrinogen; FIG. 1): A complete monolayer of protein adsorbs | change in Θm on adsorption of fibrinogen (Fibrinogen; FIG. 1): 0.35 ° | amount of protein that remains adsorbed to the SAM (Fibrinogen) (Fibrinogen): 3,432 pg/mm^2 | amount of protein that remains adsorbed to the SAM (Fibrinogen) (Fibrinogen; listed as hexadecanethiolate): 3,500 pg/mm^2 | amount of protein that remains adsorbed to the SAM (Pepsin) (Pepsin): 1,337 pg/mm^2 | amount of protein that remains adsorbed to the SAM (Lysozyme) (Lysozyme): 1,023 pg/mm^2 | amount of protein that remains adsorbed to the SAM (Insulin) (Insulin): 688 pg/mm^2 | amount of protein that remains adsorbed to the SAM (Trypsin) (Trypsin): 661 pg/mm^2
